Like-named read-outs stand apart in the source and are kept apart here.
How the values were obtained:
[1] = pKa, log P and log D of the compound of formula (II); type: physicochemical
Description: The pKa of the compound of formula (II) is about 3.3, with a log P of about 2.5 and log D (pH7.4) of about −1.6.

[2] = Saturation solubility, shake-flask with UV quantification; type: physicochemical; settings: for solubility at 72 h: thermodynamic from solid
Experimental: The FaSSIF and FeSSIF solutions were prepared using Phares SIF powder according to the formulation instructions and the SGF solution was prepared using the guidelines provided. […] The pH and temperature of the supernatant were measured on a SiriusT3 instrument.

[3] = Wettability: contact angle measurement with water on pressed powder; type: physicochemical; settings: water, in ° (unit assumed)
Experimental: Contact angel instrument: EasyDrop DSA15E (Krüss, Hamburg, Germany)
Syringe: NE44, diameter of needle 0.5 mm (Krüss, Hamburg, Germany)
The powder was pressed (approx 50 mg powder, 3 tons, 2 min) in tablets and analyzed by contact angle measurement. The angel between the solid and the liquid is measured after 0 and up to 60 seconds using water.
All determinations used the above method and the limit for the standards measurements are well within the given limits.

[4] = Supersaturation stabilization experiment with PVP K90 (CheqSol); type: physicochemical
Description: Typically the higher the super saturation, the faster and the more extensive is the precipitation which occurs. On the other hand, higher bioavailability may be achieved by using excipients which interact with the drug in the super-saturated state. In this super-saturated state, precipitation is inhibited and/or delayed, thus leading to higher luminal drug concentrations in vivo of the dissolved drug. […] The present invention thus provides a pharmaceutical composition which achieves higher bioavailability of the drug substance.

[5] = Pharmacokinetic Study 1: FMI tablets fasted/fed versus reference IR capsule, crossover, healthy adult volunteers; type: in vivo, human; settings: for Geometric-mean ratio (Fed/Fasted) of AUCinf / Geometric-mean ratio (Fed/Fasted) of AUClast / Geometric-mean ratio (Fed/Fasted) of Cmax: high fat breakfast versus fasted
Experimental: This was an open label, randomized, four-period, incomplete crossover, single center study in healthy adult volunteers. There were 4 treatments in the study: 3 doses of the FMI (given fasting or fed following a high-fat breakfast) and one reference IR capsule (given fed after a typical breakfast). The term “FMI” refers to the dosage form of Example 7 (30 mg FMI) or Example 8 (75 mg FMI).
Each subject was randomized to 1 of 18 treatment sequences, each with 4 treatment periods (Table 27). The first treatment period consisted of 1 of the 3 doses of FMI given fed, and treatment periods 2 to 4 consisted of 1 dose of IR capsule (fed) and 2 of the 3 doses of the FMI given fasted. […] Each subject therefore had 2 fasting treatments with the FMI formulation, 1 fed treatment with the FMI formulation and a reference treatment (IR capsule). Seventy two subjects enrolled and were dosed in the study with 70 completers.
The study consisted of a 28-day screening period, four baseline periods (one before each treatment period), four treatment periods with a wash out period of a minimum of 5 days, followed by a study completion evaluation approximately 72 hours after the last drug administration. Subjects who met the eligibility criteria at screening were admitted to baseline evaluations. All baseline safety evaluation results were available prior to dosing.
For fasted administration, elinogrel was administered in the morning, following an overnight fast of at least 10 hours. Subjects continued to fast until 4 hours post-dose. For fed administration of FMI tablets, elinogrel was administered in the morning, within 30 minutes of a high fat breakfast (approximately 1000 calories). Subjects continued to fast until 4 hours post-dose. For fed administration of the reference (IR capsule), it was administered in the morning, within 30 minutes of a typical breakfast (approximately 500 calories). Subjects continued to fast until 4 hours post-dose.
Subjects were admitted to the study site approximately 12 hours prior to dosing in each period for baseline evaluations. Following a single dose of elinogrel, PK assessments were taken up to 48 hours post dose and safety assessments were made for up to 72 hours.
Subjects were domiciled for 24 hours post dosing for PK sample collection, at which time they were discharged from the study site. Subjects returned on the following 2 mornings for 48 hour PK and 72 hour safety samples. Following the 72 hour safety assessments of treatment period 4 (or in the case of subject discontinuation) subjects underwent study completion evaluations and were discharged from the study. […].
This was a three-period, four-treatment crossover study design with an add-on food effect period (Period 1).
Treatment 1 (T1)=elinogrel 30 mg FMI dose fasting
Treatment 2 (T2)=elinogrel 75 mg FMI dose fasting
Treatment 3 (T3)=elinogrel 150 mg FMI dose fasting
Reference (R)=elinogrel 150 mg IR capsule dose fed (typical breakfast); Example 6 (Reference)
Fed treatment 1 (F1)=elinogrel 30 mg FMI dose fed (high fat breakfast)
Fed treatment 2 (F2)=elinogrel 75 mg FMI dose fed (high fat breakfast)
Fed treatment 3 (F3)=elinogrel 150 mg FMI dose fed (high fat breakfast)
Subjects will received the following treatments in a randomized order: • Treatment (T1, F1) with IR (IR=immediate release) tablet of Example 7 containing pH-modifying alkalizing agent, 30 mg in fasted and fed state. • Treatment (T2, F2) with IR (IR=immediate release) tablet of Example 8 containing pH-modifying alkalizing agent, 75 mg in fasted and fed state • Treatment (R) with 2×IR (IR=immediate release) capsule of Example 6 (Reference): 2×75 mg (150 mg) in fed state. • Treatment (T3, F3) with 2×IR (IR=immediate release) tablet of Example 8 containing pH-modifying alkalizing agent, 2×75 mg (150 mg) in fasted and fed state.
To evaluate the food effect, the geometric mean ratio for PK parameters of the fed versus fasted for each dose level and its 90% CI was estimated as shown in Table 29 below.

CNc1cc2[nH]c(=O)n(-c3ccc(NC(=O)NS(=O)(=O)c4ccc(Cl)s4)cc3)c(=O)c2cc1F [compound of formula (II), elinogrel]
LogP [1]: ~2.5 | pKa ([1]; first pKa): about 3.3 | logD ([1]; pH 7.4, pH7.4): ~-1.6 | pKa ([1]; read-out: second pKa): 10.3 | final pH measured of the supernatant ([2]; FaSSIF pH 6.5-1w): 6.42 | final pH measured of the supernatant ([2]; FeSSIF pH 5.0-1w): 4.97 | final pH measured of the supernatant ([2]; Na Phosphate pH 6.8): 6.80 | final pH measured of the supernatant ([2]; Na-Acetate pH 4.5): 4.53 | final pH measured of the supernatant ([2]; SGF pH 2.1): 2.21 | solubility at 72 h ([2]; aqueous buffer, Na Phosphate pH 6.8, mean N = 2): 11.3 µg/mL | solubility at 72 h ([2]; aqueous buffer, Na-Acetate pH 4.5, mean N = 2): 0.89 µg/mL | solubility at 72 h ([2]; simulated gastric fluid, SGF pH 2.1, mean N = 2): 0.48 µg/mL | solubility at 72 h ([2]; FaSSIF pH 6.5-1w, mean N = 2): 25.2 µg/mL | solubility at 72 h ([2]; FeSSIF pH 5.0-1w, mean N = 2): 6 µg/mL | Contact angle ([3]; 0 sec): 65.9 | Contact angle ([3]; 30 sec): 60.8 | Contact angle ([3]; 60 sec): 60.1 | stable super-saturation ([4]; PVP K90 to drug 1:1 by weight, pH>6.0, for 66 hours): 17-86 fold | concentration in solution with PVP ([4]; after 67 h with PVP, pH 7.2): 860 µg/mL | solubility ([4]; aqueous buffer, pH 6.0, read-out: solubility measured by Sirius CheqSol): 9.9 µg/mL | solubility at 66 h ([4]; pH 7.2, aqueous buffer): ~170 µg/mL | decrease of AUC by high fat meal ([5]; 30 mg dose): 44-52% | decrease of Cmax by high fat meal ([5]; 30 mg dose): 58% | decrease of AUC by high fat meal ([5]; 75 mg dose): 14-18% | decrease of Cmax by high fat meal ([5]; 75 mg dose): 36% | decrease of AUC by high fat meal ([5]; 150 mg dose): 29-30% | decrease of Cmax by high fat meal ([5]; 150 mg dose): 48% | Geometric-mean ratio (Fed/Fasted) of AUCinf ([5]; FMI 30 mg): 0.48 | Geometric-mean ratio (Fed/Fasted) of AUClast ([5]; FMI 30 mg): 0.56 | Geometric-mean ratio (Fed/Fasted) of Cmax ([5]; FMI 30 mg): 0.42 | Geometric-mean ratio (Fed/Fasted) of AUCinf ([5]; FMI 75 mg): 0.86 | Geometric-mean ratio (Fed/Fasted) of AUClast ([5]; FMI 75 mg): 0.82 | Geometric-mean ratio (Fed/Fasted) of Cmax ([5]; FMI 75 mg): 0.64 | Geometric-mean ratio (Fed/Fasted) of AUCinf ([5]; FMI 150 mg): 0.71 | Geometric-mean ratio (Fed/Fasted) of AUClast ([5]; FMI 150 mg): 0.70 | Geometric-mean ratio (Fed/Fasted) of Cmax ([5]; FMI 150 mg): 0.52

Source: patent US8987285B2, “Pharmaceutical compositions, dosage forms and new forms of the compound of formula (I), and methods of use thereof” (Portola Pharmaceuticals, Inc., priority 2010, dated 2015)
